Source: US12637437B2, “Herbicidal compounds” (SYNGENTA CROP PROTECTION AG, priority 2021, dated 2026)

How the values were obtained:
Format in all cases: in vivo
[1] = system: Ipomoea hederacea (IPOHE); assay: Post-emergence herbicidal glasshouse test, IPOHE; conditions: 125 g/h, evaluated after 13 days, five-point scale
Description: (§1) Seeds of a variety of test species are sown in standard soil in pots (Lolium perenne (LOLPE), Amaranthus retoflexus (AMARE), Abutilon theophrasti (ABUTH), Setaria faberi (SETFA), Echinochloa crus-galli (ECHCG), Ipomoea hederacea (IPOHE)). After cultivation for one day (pre-emergence) or after 8 days cultivation (post-emergence) under controlled conditions in a glasshouse (at 24/16° C., day/night; 14 hours light; 65% humidity), the plants are sprayed with an aqueous spray solution derived from the formulation of the technical active ingredient in acetone/water (50:50) solution containing 0.5% Tween 20 (polyoxyethelyene sorbitan monolaurate, CAS RN 9005-64-5). Compounds are applied at 125 g/h unless otherwise indicated. The test plants are then grown in a glasshouse under controlled conditions in a glasshouse (at 24/16° C., day/night; 14 hours light; 65% humidity) and watered twice daily. After 13 days for pre and post-emergence, the test is evaluated for the percentage damage caused to the plant. The biological activities are shown in the following table on a five-point scale (5=80-100%; 4=60-79%; 3=40-59%; 2=20-39%; 1=0-19%). “—” denotes not tested on this species or data not captured.

[2] = system: Amaranthus retoflexus (AMARE); assay: Pre-emergence herbicidal glasshouse test, AMARE; conditions: 125 g/h, evaluated after 13 days, five-point scale
Description: as §1

[3] = system: Echinochloa crus-galli (ECHCG); assay: Post-emergence herbicidal glasshouse test, ECHCG; conditions: 125 g/h, evaluated after 13 days, five-point scale
Description: as §1

[4] = system: Ipomoea hederacea (IPOHE); assay: Pre-emergence herbicidal glasshouse test, IPOHE; conditions: 125 g/h, evaluated after 13 days, five-point scale
Description: as §1

[5] = system: Amaranthus retoflexus (AMARE); assay: Post-emergence herbicidal glasshouse test, AMARE; set-up: dose or concentration left out as unconfirmed; conditions: evaluated after 13 days, five-point scale
Description: as §1

[6] = system: Echinochloa crus-galli (ECHCG); assay: Pre-emergence herbicidal glasshouse test, ECHCG; conditions: 125 g/h, evaluated after 13 days, five-point scale
Description: as §1

Setaria faberi (SETFA) [7] = assay: Pre-emergence herbicidal glasshouse test, SETFA; conditions: 125 g/h, evaluated after 13 days, five-point scale
Description: as §1

Setaria faberi (SETFA) [8] = assay: Post-emergence herbicidal glasshouse test, SETFA; conditions: 125 g/h, evaluated after 13 days, five-point scale
Description: as §1

| SMILES | percentage damage caused to the plant, POST Application IPOHE [1] | percentage damage caused to the plant, PRE Application AMARE [2] | percentage damage caused to the plant, POST Application ECHCG [3] | percentage damage caused to the plant, PRE Application IPOHE [4] | percentage damage caused to the plant, POST Application AMARE [5] | percentage damage caused to the plant, PRE Application ECHCG [6] | percentage damage caused to the plant, PRE Application SETFA (Setaria faberi (SETFA) [7]) | percentage damage caused to the plant, POST Application SETFA (Setaria faberi (SETFA) [8]) |
| --- | --- | --- | --- | --- | --- | --- | --- | --- |
| Cn1nnnc1NC(=O)c1ccc(OC(F)(F)F)c(NC(=O)OCC(F)F)c1Cl [Compound 1.011] | 4 (4=60-79%) | 5 (5=80-100%) | 5 (5=80-100%) | 4 (4=60-79%) | 4 (4=60-79%) | 5 (5=80-100%) | 5 (5=80-100%) | 5 (5=80-100%) |
| Cn1nnnc1NC(=O)c1ccc(OC(F)(F)F)c(NC(=O)OCCC#N)c1Cl [Compound 1.012] | 5 (5=80-100%) | 5 (5=80-100%) | 5 (5=80-100%) | 4 (4=60-79%) | 5 (5=80-100%) | 5 (5=80-100%) | 5 (5=80-100%) | 5 (5=80-100%) |
| Cn1nnnc1NC(=O)c1ccc(OC(F)(F)F)c(NC(=O)OCCS(C)(=O)=O)c1Cl [Compound 1.013] | 2 (2=20-39%) | 5 (5=80-100%) | 5 (5=80-100%) | 2 (2=20-39%) | 4 (4=60-79%) | 2 (2=20-39%) | 2 (2=20-39%) | 5 (5=80-100%) |
| Cn1nnnc1NC(=O)c1ccc(OC(F)F)c(NC(=O)OC2COC2)c1Cl [Compound 1.026] | 5 (5=80-100%) | 5 (5=80-100%) | 5 (5=80-100%) | 4 (4=60-79%) | 5 (5=80-100%) | 5 (5=80-100%) | 3 (3=40-59%) |  |
| Cn1nnnc1NC(=O)c1ccc(OC(F)F)c(NC(=O)OCCS(C)(=O)=O)c1Cl [Compound 1.028] | 3 (3=40-59%) | 5 (5=80-100%) | 2 (2=20-39%) | 2 (2=20-39%) | 5 (5=80-100%) | 3 (3=40-59%) | 1 (1=0-19%) |  |
| COC(=O)N(C)c1c(OC(F)(F)F)ccc(C(=O)Nc2nnnn2C)c1Cl [Compound 1.029] | 5 (5=80-100%) | 5 (5=80-100%) | 5 (5=80-100%) | 5 (5=80-100%) | 5 (5=80-100%) | 5 (5=80-100%) | 5 (5=80-100%) |  |
| CCN(C(=O)OC)c1c(OC(F)(F)F)ccc(C(=O)Nc2nnnn2C)c1Cl [Compound 1.030] | 5 (5=80-100%) | 5 (5=80-100%) | 5 (5=80-100%) | 4 (4=60-79%) | 5 (5=80-100%) | 5 (5=80-100%) | 5 (5=80-100%) |  |
